In ChEMBL document CHEMBL1128053, “Inhibition of matrix metalloproteinases by N-carboxyalkyl dipeptides: Enhanced potency and selectivity with substituted P1 homophenylalanines” (Bioorg Med Chem Lett, 1995):

Legend:
Interstitial collagenase = biological target: T1, Interstitial collagenase (Homo sapiens, UniProt P03956)
T1 sequence (P03956 whole entry): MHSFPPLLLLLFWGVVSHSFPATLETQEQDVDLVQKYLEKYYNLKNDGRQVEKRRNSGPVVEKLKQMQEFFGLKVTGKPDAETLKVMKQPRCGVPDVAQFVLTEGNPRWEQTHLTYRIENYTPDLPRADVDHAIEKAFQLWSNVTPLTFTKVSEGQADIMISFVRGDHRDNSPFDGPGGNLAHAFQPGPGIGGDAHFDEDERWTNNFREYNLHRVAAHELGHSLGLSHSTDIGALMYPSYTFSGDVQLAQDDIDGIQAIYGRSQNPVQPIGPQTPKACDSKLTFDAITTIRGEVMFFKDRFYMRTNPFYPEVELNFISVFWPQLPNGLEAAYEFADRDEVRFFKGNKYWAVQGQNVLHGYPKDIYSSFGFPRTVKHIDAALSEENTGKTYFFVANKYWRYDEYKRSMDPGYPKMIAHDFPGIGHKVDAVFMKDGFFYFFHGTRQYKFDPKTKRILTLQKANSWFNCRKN

[1] = biological target: 72 kDa type IV collagenase (Homo sapiens, UniProt P08253)
Chain of 72 kDa type IV collagenase (P08253 whole entry): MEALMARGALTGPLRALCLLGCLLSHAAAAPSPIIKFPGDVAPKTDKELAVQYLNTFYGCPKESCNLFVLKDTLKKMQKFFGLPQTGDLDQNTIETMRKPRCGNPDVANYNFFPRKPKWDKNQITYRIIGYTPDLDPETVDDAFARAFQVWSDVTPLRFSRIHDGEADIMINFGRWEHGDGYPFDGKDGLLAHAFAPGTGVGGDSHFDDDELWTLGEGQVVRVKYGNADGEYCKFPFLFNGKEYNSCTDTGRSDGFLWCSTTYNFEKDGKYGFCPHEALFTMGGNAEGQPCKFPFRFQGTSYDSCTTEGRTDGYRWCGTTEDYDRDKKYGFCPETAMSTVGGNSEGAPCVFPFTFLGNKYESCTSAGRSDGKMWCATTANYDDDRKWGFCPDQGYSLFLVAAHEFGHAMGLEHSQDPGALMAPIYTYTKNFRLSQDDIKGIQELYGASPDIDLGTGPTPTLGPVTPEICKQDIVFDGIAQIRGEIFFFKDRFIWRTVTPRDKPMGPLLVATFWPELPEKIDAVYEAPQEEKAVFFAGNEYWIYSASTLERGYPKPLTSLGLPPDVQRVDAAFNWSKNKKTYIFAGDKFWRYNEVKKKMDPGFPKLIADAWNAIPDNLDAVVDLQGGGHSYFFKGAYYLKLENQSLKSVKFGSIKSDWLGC

**Q.** What does the source list for `CCCCc1ccc(CC[C@H](N[C@H](C)C(=O)O)C(=O)N[C@@H](CCCNC(=N)N)C(=O)Nc2ccccc2)cc1`?
**A.** Ki (Interstitial collagenase): > 10 µM; Ki [1]: 0.0021 µM

**Q.** With `C[C@@H](N[C@@H](CCc1ccccc1)C(=O)N[C@@H](CCCNC(=N)N)C(=O)Nc1ccccc1)C(=O)O` as the molecule, how does the Ki (Interstitial collagenase) read?
**A.** Its Ki is 0.47 µM.

**Q.** What about the Ki [1] of the same molecule?
**A.** Its Ki is 0.21 µM.

**Q.** Which results are given for `CCCc1ccc(CC[C@H](N[C@H](C)C(=O)O)C(=O)N[C@@H](CCCN=C(N)N)C(=O)Nc2ccccc2)cc1`?
**A.** Ki (Interstitial collagenase): 2.9 µM; Ki [1]: 0.003 µM

**Q.** For `CC(C)C[C@H](NC(=O)[C@H](CCc1ccccc1O)N[C@H](C)C(=O)O)C(=O)Nc1ccccc1`, which Ki (Interstitial collagenase) is on record?
**A.** Its Ki is 2.7 µM.

**Q.** With `Cc1ccc(CC[C@H](N[C@H](C)C(=O)O)C(=O)N[C@@H](CC(C)C)C(=O)Nc2ccccc2)cc1C` as the molecule, how does the Ki (Interstitial collagenase) read?
**A.** The Ki was 7.7 µM.

**Q.** And the Ki [1]?
**A.** The Ki was 0.025 µM.

**Q.** `CCc1ccc(CC[C@H](N[C@H](C)C(=O)O)C(=O)N[C@@H](CC(C)C)C(=O)Nc2ccccc2)cc1` was tested. Which Ki (Interstitial collagenase) did it give?
**A.** Its Ki is 2.3 µM.

**Q.** What about the Ki [1] of the same molecule?
**A.** Its Ki is 0.012 µM.

**Q.** Which Ki (Interstitial collagenase) does the source give for `CC(C)C[C@H](NC(=O)[C@H](CCc1ccc(C(F)(F)F)cc1)N[C@H](C)C(=O)O)C(=O)Nc1ccccc1` here?
**A.** Its Ki is 5.1 µM.

**Q.** What about the Ki [1] of the same molecule?
**A.** Its Ki is 0.11 µM.

**Q.** With `CC(C)C[C@H](NC(=O)[C@H](CCc1ccc(F)cc1)N[C@H](C)C(=O)O)C(=O)Nc1ccccc1` as the molecule, how does the Ki (Interstitial collagenase) read?
**A.** The Ki was 0.87 µM.

**Q.** What about the Ki [1] of the same molecule?
**A.** Its Ki is 0.22 µM.

**Q.** For `Cc1cccc(CC[C@H](N[C@H](C)C(=O)O)C(=O)N[C@@H](CC(C)C)C(=O)Nc2ccccc2)c1`, which Ki (Interstitial collagenase) is on record?
**A.** The Ki was 1.5 µM.

**Q.** For `Cc1ccc(CC[C@H](N[C@H](C)C(=O)O)C(=O)N[C@@H](CC(C)C)C(=O)Nc2ccccc2)cc1`, which Ki (Interstitial collagenase) is on record?
**A.** The Ki was 1.9 µM.

**Q.** What does the source list for `CC(C)Cc1cccc(CC[C@H](N[C@H](C)C(=O)O)C(=O)N[C@@H](CC(C)C)C(=O)Nc2ccccc2)c1`?
**A.** Ki (Interstitial collagenase): > 10 µM; Ki [1]: 6.1 µM

**Q.** With `CC(C)C[C@H](NC(=O)[C@H](CCc1ccc(O)cc1)N[C@H](C)C(=O)O)C(=O)Nc1ccccc1` as the molecule, how does the Ki (Interstitial collagenase) read?
**A.** Its Ki is 1 µM.

**Q.** Which results are given for `CCOc1ccc(CC[C@H](N[C@H](C)C(=O)O)C(=O)N[C@@H](CCCNC(=N)N)C(=O)Nc2ccccc2)cc1`?
**A.** Ki (Interstitial collagenase): 2.3 µM; Ki [1]: 0.0061 µM

**Q.** Which results are given for `CC(C)C[C@H](NC(=O)[C@H](CCc1ccc(Cl)cc1)N[C@H](C)C(=O)O)C(=O)Nc1ccccc1`?
**A.** Ki (Interstitial collagenase): 2.1 µM; Ki [1]: 0.077 µM

**Q.** Which Ki (Interstitial collagenase) does the source give for `COc1ccc(CC[C@H](N[C@H](C)C(=O)O)C(=O)N[C@@H](CC(C)C)C(=O)Nc2ccccc2)cc1OC` here?
**A.** The Ki was greater than 10 µM.

**Q.** And the Ki [1]?
**A.** Its Ki is greater than 10 µM.

**Q.** For `COc1ccccc1CC[C@H](N[C@H](C)C(=O)O)C(=O)N[C@@H](CC(C)C)C(=O)Nc1ccccc1`, which Ki (Interstitial collagenase) is on record?
**A.** The Ki was greater than 10 µM.

**Q.** Which results are given for `Cc1cc(C)cc(CC[C@H](N[C@H](C)C(=O)O)C(=O)N[C@@H](CC(C)C)C(=O)Nc2ccccc2)c1`?
**A.** Ki (Interstitial collagenase): > 10 µM; Ki [1]: 4.84 µM

**Q.** How did the Ki (Interstitial collagenase) turn out when `COc1cccc(CC[C@H](N[C@H](C)C(=O)O)C(=O)N[C@@H](CC(C)C)C(=O)Nc2ccccc2)c1` was run?
**A.** Its Ki is greater than 10 µM.

**Q.** For `CC(C)C[C@H](NC(=O)[C@H](CCc1cccc(Cl)c1)N[C@H](C)C(=O)O)C(=O)Nc1ccccc1`, which Ki (Interstitial collagenase) is on record?
**A.** The Ki was 3.3 µM.

**Q.** `CC(C)C[C@H](NC(=O)[C@H](CCc1ccc(C(C)C)cc1)N[C@H](C)C(=O)O)C(=O)Nc1ccccc1` was tested. Which Ki (Interstitial collagenase) did it give?
**A.** The Ki was greater than 10 µM.

**Q.** And the Ki [1]?
**A.** Its Ki is 0.13 µM.

**Q.** With `CC(C)Cc1ccc(CC[C@H](N[C@H](C)C(=O)O)C(=O)N[C@@H](CC(C)C)C(=O)Nc2ccccc2)cc1` as the molecule, how does the Ki (Interstitial collagenase) read?
**A.** The Ki was greater than 10 µM.

**Q.** What about the Ki [1] of the same molecule?
**A.** Its Ki is 0.011 µM.

**Q.** With `CC(C)C[C@H](NC(=O)[C@H](CCc1cccc(O)c1)N[C@H](C)C(=O)O)C(=O)Nc1ccccc1` as the molecule, how does the Ki (Interstitial collagenase) read?
**A.** The Ki was 0.51 µM.

**Q.** Which Ki (Interstitial collagenase) does the source give for `Cc1ccccc1CC[C@H](N[C@H](C)C(=O)O)C(=O)N[C@@H](CC(C)C)C(=O)Nc1ccccc1` here?
**A.** Its Ki is greater than 10 µM.

**Q.** Which Ki (Interstitial collagenase) does the source give for `CCCc1ccc(CC[C@H](N[C@H](C)C(=O)O)C(=O)N[C@@H](CC(C)C)C(=O)Nc2ccccc2)cc1` here?
**A.** The Ki was 5.9 µM.

**Q.** And the Ki [1]?
**A.** The Ki was 0.0035 µM.
